Assays:
Male Wistar rats [1] = assay: Oral glucose tolerance test, combination effect with sulfonylureas; format: in vivo, rat; conditions: for Plasma glucose concentration (mg/dL) Just before administration: fasted rats, baseline before oral dosing; for Plasma glucose concentration (mg/dL) Just before administration / Plasma glucose concentration (mg/dL) 1 hr after administration: mean ± standard error; for Plasma glucose concentration at 1 hr compared with the Control group (in words) / Plasma glucose concentration (mg/dL) 1 hr after administration: oral, monosebacate 0.03 mg/kg as free form, gliclazide 0.3 mg/kg, oral glucose load
Procedure: (§1) Male Wistar rats (Charles River Japan, Inc.) at 9 weeks of age, fasted about 16 hours (each group has 6 animals), were administrated orally in a volume of 2.5 mL/kg with distilled water and 0.1% methylcellulose solution in the Control group, with the monosebacate (0.03 mg/kg as the above compound (B) (free form)) dissolved in distilled water (hereinafter referred to as the “monosebacate solution”) and 0.1% methylcellulose solution in the Monosebacate alone group, with gliclazide (0.3 mg/kg as gliclazide) dissolved in 0.1% methylcellulose solution (hereinafter referred to as the “gliclazide solution”) and distilled water in the Gliclazide alone group and with the monosebacate solution and the gliclazide solution (0.03 mg/kg as the compound (B) and 0.3 mg/kg as gliclazide) in the Gliclazide combination group, respectively. Subsequently, 0.4 g/mL of glucose solution (5 mL/kg) was loaded orally. The blood was collected from tail vein before and 1 hr after administration of test substance, and the plasma glucose concentrations were measured using Glucose C-II test WAKO (Wako Pure Chemical Industries, Ltd.). The numerical values in the table represent mean value±standard error.

Male Wistar rats [2] = assay: Oral glucose tolerance test, combination effect with glinides; format: in vivo, rat; conditions: for Plasma glucose concentration (mg/dL) Just before administration: fasted rats, baseline before oral dosing; for Plasma glucose concentration (mg/dL) Just before administration / Plasma glucose concentration (mg/dL) 1 hr after administration: mean ± standard error; for Plasma glucose concentration at 1 hr compared with the Control group (in words) / Plasma glucose concentration (mg/dL) 1 hr after administration: oral, monosebacate 0.03 mg/kg as free form, mitiglinide calcium hydrate 0.3 mg/kg, oral glucose load
Procedure: as §1
Instead of gliclazide in the Gliclazide alone group and the Gliclazide combination group, mitiglinide calcium hydrate (JAN) (0.3 mg/kg as mitiglinide calcium hydrate) was used (hereinafter referred to as the “Mitiglinide alone group” and the “Mitiglinide combination group”, respectively), and the plasma glucose concentrations were measured in the same way as the above method (1). The numerical values in the table represent mean value±standard error.

[3] = Storage stability test (purity by HPLC, deliquescence); format: physicochemical; conditions: for Purity (%) Initial / Purity (%) After 2 months: HPLC; for Storage stability (in words): 2 months
Procedure: The crystals of the monosebacate in Example 1 and amorphous 3-(3-{4-[3-(β-D-glucopyranosyloxy)-5-isopropyl-1H-pyrazol-4-ylmethyl]-3-methylphenoxy} propylamino)-2,2-dimethylpropionamide (free form) as Comparative Example were stored under condition of 40° C./75% relative humidity or 60° C. in open vessels, existence or nonexistence of the deliquescence and the storage stability for 2 months were examined. […] Analytical conditions of HPLC are as follows.
Detector: ultraviolet-visible absorption spectrophotometer
Column: LUNA C18(2) (produced by Phenomenex), 5 μm, 4.6×250 mm, particle diameter 100×10^−10 m
Column Temperature: a constant temperature of around 25° C.
Sample concentration: 1 mg/mL
Mobile phase A: 10 mM dipotassium hydrogenphosphate aqueous solution adjusted to pH 7.8 with phosphoric acid
Mobile phase B: Acetonitrile
0-30 min: Mobile phase A/Mobile phase B=78/22, 30-50 min: Mobile phase A/Mobile phase B=78/22→30/70, 50-60 min: Mobile phase A/Mobile phase B=30/70
Range of area measurement: for 50 minutes from the start, except for the area of the peak of the blank solution

[4] = 40° C./75% relative humidity storage test
[5] = 60° C. in open vessels storage test
[6] = stored at 40° C./75% relative humidity for 2 months
[7] = stored at 60° C. in open vessels for 2 months

Row | Molecule | Plasma glucose concentration (mg/dL) Just before administration (Male Wistar rats [1]) [mg/dL] | Plasma glucose concentration at 1 hr compared with the Control group (in words) (Male Wistar rats [1]) | Plasma glucose concentration (mg/dL) 1 hr after administration (Male Wistar rats [1]) [mg/dL] | Plasma glucose concentration (mg/dL) Just before administration (Male Wistar rats [2]) [mg/dL] | Plasma glucose concentration at 1 hr compared with the Control group (in words) (Male Wistar rats [2]) | Plasma glucose concentration (mg/dL) 1 hr after administration (Male Wistar rats [2]) [mg/dL] | Deliquescence ([3]; 40° C./75% relative humidity) | Purity (%) Initial [3, 4] [%] | Storage stability (in words) ([3]; 40° C./75% relative humidity) | Purity (%) Initial [3, 5] [%] | Storage stability (in words) ([3]; 60° C. in open vessels) | Purity (%) After 2 months [3, 6] [%] | Purity (%) After 2 months [3, 7] [%] | Deliquescence ([3]; 40° C./75% relative humidity, listed as free form)
1 | Cc1ccc(S(=O)(=O)NC(=O)NN2CC3CCCC3C2)cc1 (stereo not drawn) [Gliclazide, gliclazide] | 80.7 ± 6.7 | lower plasma glucose concentrations | 136.5 ± 6.7 | – | – | – | – | – | – | – | – | – | – | –
2 | Bis[3-(3-{4-[3-(β-D-glucopyranosyloxy)-5-isopropyl-1H-pyrazol-4-ylmethyl]-3-methylphenoxy}propylamino)-2,2-dimethylpropionamide] monosebacate [Example 1] | 81.6 ± 3.1 | lower plasma glucose concentrations | 127.6 ± 3.8 | 83.8 ± 1.8 | lower plasma glucose concentrations | 141.3 ± 5.6 | Nil | 99.6 | excellent storage stability | 99.6 | almost no decrease in the purity | 99.5 | 99.2 | –
3 | Cc1cc(OCCCNCC(C)(C)C(N)=O)ccc1Cc1c(O[C@@H]2O[C@H](CO)[C@@H](O)[C@H](O)[C@H]2O)n[nH]c1C(C)C [Comparative Example, 3-(3-{4-[3-(β-D-glucopyranosyloxy)-5-isopropyl-1H-pyrazol-4-ylmethyl]-3-methylphenoxy}propylamino)-2,2-dimethylpropionamide] | – | – | – | – | – | – | Yes | 98.7 | decrease in the purity | 98.7 | remarkable decrease in the purity due to the decomposition | 97.0 | 95.3 | deliquescence from the initial of the experiment
4 | O=C(O)[C@H](CC(=O)N1C[C@H]2CCCC[C@H]2C1)Cc1ccccc1 [Mitiglinide, mitiglinide calcium hydrate] | – | – | – | 85.8 ± 1.7 | lower plasma glucose concentrations | 119.1 ± 5.8 | – | – | – | – | – | – | – | –

— patent US20100279962A1, “MONOSEBACATE OF PYRAZOLE DERIVATIVE” (KISSEI PHARMACEUTICAL CO., LTD., priority 2007, published 2010)
